Experimental data as given in patent US6355409B1, “Tagatose as a cytoprotective supplement for the removal and/or storage of organs to reduce reperfusion injury” (Biospherics Incorporated, priority 2000, dated 2002).

Columns and labels:
liver cells = assay: Exposure of organ cells to tagatose, ATP level; assay type: cell-based; conditions: exposure of organ cells such as liver cells to tagatose
organ, e.g., a liver = assay: Removal and/or storage of organ in tagatose-containing organ storage solution (Examples 1-3); parameters: species or system human; conditions: tagatose solution containing about 0.36% by weight of tagatose, with nutrients and electrolytes
From the text: After the organ, e.g., a liver is accessed by surgery on a human subject, three liters of chilled tagatose solution containing about 0.36% by weight of tagatose are used to flush the blood from it and to cool the organ while still on the body. The tagatose solution contains the amounts of nutrients and electrolytes common to present day storage solutions, such as Viaspan. […] The organ is then removed and placed into a chilled sterile container, holding more of the tagatose solution, for refrigerated storage until the transplant occurs. The ischemia time is shorter in this procedure than in Example 1. The donor organ is removed and perfused with tagatose solution containing about 0.36% by weight of tagatose that, again, contains the requisite nutrients and electrolytes. The organ is then placed into a sterile container that contains more of the same tagatose solution. That sterile container is placed into two more sterile containers and is then placed on ice for immediate transit to the organ recipient. The organ is removed as described in Example 1. It is flushed and perfused with tagatose solution, containing about 0.36% by weight of tagatose, and containing the requisite nutrients and electrolytes. The organ is placed in a sterile container with more of the same tagatose solution. Two protocols may be used for storage a. […]

[1] = high concentrations; cited from earlier work

For `O=C(CO)[C@@H](O)[C@@H](O)[C@H](O)CO` [tagatose], the “ATP in organ cells” value (liver cells) was “massively decreases ATP” and the “reperfusion injury of the organ” value (organ, e.g., a liver) was “reduces reperfusion injury”.

In the case of `CC(=O)N(O)CCCCCNC(=O)CCC(=O)N(O)CCCCCNC(=O)CCC(=O)N(O)CCCCCN` [deferoxamine], the toxicity [1] is listed as “toxic at high concentrations”.
